“Also recorded” adds a separate entry of the source.
Tests used:
5-HT3 = settings: read-out: Ki 5-HT3; cited from earlier work
5-HT4 = settings: read-out: Ki 5-HT4; cited from earlier work
MDA-MB435 cells = assay: colony formation; format: cell-based, human
EMT-6 cells = assay: colony formation; format: cell-based, mouse
Panc-02 = settings: cited from earlier work
σ2 receptor = target: T1, σ2 receptor (Rattus norvegicus, UniProt Q5U3Y7); assay: σ2 receptor competitive binding with [^3H]RHM-1; settings: Ki of σ1/σ2 ratio
T1 sequence (Q5U3Y7 1-176): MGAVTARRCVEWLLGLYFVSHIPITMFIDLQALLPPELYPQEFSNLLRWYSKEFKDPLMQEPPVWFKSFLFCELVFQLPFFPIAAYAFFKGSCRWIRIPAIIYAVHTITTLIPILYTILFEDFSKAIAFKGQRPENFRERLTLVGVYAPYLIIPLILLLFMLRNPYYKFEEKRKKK

COc1ccc(C)cc1NC(=O)OC1CC2CCCC(C1)N2Cc1ccccc1 (centres unmarked) [Compound 6, 9-Benzyl-9-azabicyclo[3.3.1]nonan-3-yl-2-methoxy-5-methylphenylcarbamate]
Ki (5-HT3): > 1000 nM | Ki (5-HT4): > 1000 nM

COc1cccc2c1C(=O)c1c(O)c3c(c(O)c1C2=O)C[C@@](O)(C(=O)CO)C[C@@H]3O[C@H]1C[C@H](N)[C@H](O)[C@H](C)O1 [DOX, doxorubicin, reference compound]
tumor cell kill as single agent (MDA-MB435 cells; MDA-MB435, DOX <20 μM, 24 h): no tumor cell kill | tumor cell kill as single agent (EMT-6 cells; EMT-6, DOX <20 μM, 24 h): no tumor cell kill

COc1ccc(C)cc1NC(=O)OC1CC2CCCC(C1)N2Cc1ccc(N(C)C)cc1 (centres unmarked) [WC-26, 9-(4-(Dimethylamino)benzyl)-9-azabicyclo[3.3.1]nonan-3-yl-2-methoxy-5-methyl-phenylcarbamate]
clonogenic survival, combination with DOX compared to DOX alone (MDA-MB435 cells; MDA-MB435, 2 μM WC-26 16 h, then range of DOX concentrations added for 24 h): large decrease in clonogenic survival | cell kill as single agent (MDA-MB435 cells; MDA-MB435, 2 μM WC-26 alone, 40 h): no measureable cell kill; also recorded: no tumor cell kill | apoptosis in treated tumors (Panc-02; flow cytometry): dose-dependent increases in apoptosis | systemic toxicity (Panc-02; treated mice): no evidence of systemic toxicity | clonogenic survival, combination with DOX compared to DOX alone (EMT-6 cells; EMT-6, 2 μM WC-26 16 h, then range of DOX concentrations added for 24 h): large decrease in clonogenic survival | cell kill as single agent (EMT-6 cells; EMT-6, 2 μM WC-26 alone, 40 h): no measureable cell kill; also recorded: no tumor cell kill

COc1ccc(C)cc1NC(=O)OC1CC2CCCC(C1)N2Cc1ccc(CCF)cc1 (centres unmarked) [WC-59, 9-(4-(2-Fluoroethyl)benzyl)-9-azabicyclo[3.3.1]nonan-3-yl-2-methoxy-5-methyl-phenylcarbamate]
σ1/σ2 (Ki ratio) (σ2 receptor): 2,087

From PMC2670245 (Bioorganic & medicinal chemistry, 2008)
